Measurements: PMC2409929 (British Journal of Cancer, 2004)

Tested on: patients with metastatic colorectal cancer
Test: Randomised phase II trial: tumour response (WHO criteria) and time-to-event efficacy
Conditions: for Complete response, % / Duration of response and stabilisation, median (min–max) / Overall response (CR+PR), % / Partial response, % / Progressive disease, % / Response not evaluable, % / Stable disease, % / Survival, median (min–max) / Time to progression, median (min–max) / Time to treatment failure, median (min–max): intent-to-treat
[1] = arm A (350 mg m^−2 90-min i.v. q3 weeks)
[2] = arm B (125 mg m^−2 90-min i.v. weekly × 4 q6 weeks)
[3] = arm C (250 mg m^−2 90-min i.v. q2 weeks)
[4] = arm D (10 mg m^−2 day^−1 14-day continuous infusion q3 weeks)

Procedure: A total of 17 centres in Europe participated in this study: two in Denmark, one in Ireland, four in The Netherlands, five in Norway, two in Sweden and three in Russia. […] Randomisation was performed centrally by Aventis Pharma R&D, Antony Cedex, France. […] A total of 37 evaluable patients per arm had to be included.
Pretreatment evaluation included a complete medical history and complete physical examination. Before each course, blood chemistry and haematology profiles were checked. Haematology was checked weekly. […] An external response review committee (ERRC) was established during the study to perform assessments of tumour response. […] Adverse events that were not reported according to NCI-CTC were graded as mild, moderate, severe, or life threatening.
The primary efficacy variable was response rate; overall response was defined as complete plus partial response. The secondary efficacy variables were the duration of response and stabilisation, time to progression, time to treatment failure and the overall survival. The differences between the four treatment groups were explored with the χ^2 test. Subsequent statistical tests were performed only in the case of evidence of difference to provide the significance level of difference. The Fisher exact test was used to compare treatment groups on categorical variables. For continuous variables, if a normal distribution could be assumed, Student's t-tests were used. Otherwise, they were analysed by nonparametric methods. Exact confidence intervals were calculated using binominal distribution probability. Censored data were analysed using the Kaplan–Meier method; the log-rank test was used to compare the groups. Differences in pharmacokinetic parameters between the four treatment arms were evaluated using one-way analysis of variance (ANOVA) combined with least significant difference (LSD) method (P was set at 0.05) and the Student's t-test was used to calculate the P-value of significant differences. The Pearson correlation coefficient (r) was calculated between dose and pharmacokinetic parameters. Statistical analyses were performed with SPSS (version 10.0.7 for Windows, SPSS Inc.). All tests for significance were two-tailed.

CCc1c2c(nc3ccc(OC(=O)N4CCC(N5CCCCC5)CC4)cc13)-c1cc3c(c(=O)n1C2)COC(=O)[C@]3(O)CC [irinotecan]
Patients who discontinued treatment because of progressive disease [1]: 81%
Complete response, % [1]: 0%
Duration of response and stabilisation, median (min–max) [1]: 5.9 (0.8–12.7) Months
Overall response (CR+PR), % [1]: 7%
Partial response, % [1]: 7%
Progressive disease, % [1]: 46%
Response not evaluable, % [1]: 2%
Stable disease, % [1]: 44%
Survival, median (min–max) [1]: 9.4 (1.0–15.3) Months
Time to progression, median (min–max) [1]: 2.7 (1.0–12.8) Months
Time to treatment failure, median (min–max) [1]: 2.7 (1.0–12.8) Months
Patients who discontinued treatment because of progressive disease [2]: 57%
Complete response, % [2]: 0%
Duration of response and stabilisation, median (min–max) [2]: 3.9 (1.0–13.0) Months
Overall response (CR+PR), % [2]: 5%
Partial response, % [2]: 5%
Progressive disease, % [2]: 19%
Response not evaluable, % [2]: 14%
Stable disease, % [2]: 62%
Survival, median (min–max) [2]: 7.1 (0.6–13.5) Months
Time to treatment failure, median (min–max) [2]: 2.3 (0.6–8.3) Months
Patients who discontinued treatment because of progressive disease [3]: 61%
Complete response, % [3]: 0%
Duration of response and stabilisation, median (min–max) [3]: 5.3 (1.3–8.9) Months
Overall response (CR+PR), % [3]: 11%
Partial response, % [3]: 11%
Progressive disease, % [3]: 33%
Response not evaluable, % [3]: 2%
Stable disease, % [3]: 54%
Survival, median (min–max) [3]: 8.6 (0.7–16.7) Months
Time to progression, median (min–max) [3]: 3.8 (0.0–8.9) Months
Time to treatment failure, median (min–max) [3]: 3.2 (0.4–7.1) Months
Patients who discontinued treatment because of progressive disease [4]: 55%
Complete response, % [4]: 2%
Duration of response and stabilisation, median (min–max) [4]: 3.4 (1.3–6.9) Months
Overall response (CR+PR), % [4]: 5%
Partial response, % [4]: 2%
Progressive disease, % [4]: 34%
Response not evaluable, % [4]: 18%
Stable disease, % [4]: 43%
Survival, median (min–max) [4]: 6.4 (1.1–15.1) Months
Time to progression, median (min–max) [4]: 2.8 (0.0–7.0) Months
Time to treatment failure, median (min–max) [4]: 1.7 (0.5–7.1) Months
Median survival (range across the four arms A–D): 6.4–9.4 months
Overall response rates (range across the four arms A–D): 5–11%
Time to progression (range across the four arms A–D): 2.7–3.8 months
Time to treatment failure (range across the four arms A–D): 1.7–3.2 months
